According to publication PMC11258351, “PK/PD investigation of antiviral host matriptase/TMPRSS2 inhibitors in cell models” (Scientific Reports, 2024):
Values joined by “and” are separate entries in the source; they are usually repeats but may differ in a detail not shown here. Equal entries are not always repeated. “Also recorded” adds a separate entry of the source. Where two headings read alike, the source gives them in different places.

Tests used:
[1] = Prediction of in vivo human PK parameters from hepatocyte clearance; type: in vitro ADME; settings: for Classification (extraction type) / Extraction ratio EH: predicted; for Predicted Cl, CLH: predicted from hepatocyte Clint, fu = 1
H9N2 = settings: MDCK-II cells, 20 μM and 50 μM; cited from earlier work
CYP2C19 [2] = target: T1, CYP2C19 (Homo sapiens, UniProt P33261); experiment: Fluorometric CYP2C19 activity assay in human hepatic microsomes; settings: human liver microsomes, protease inhibitors at 50 µM, 15 min 37 °C
[3] = Depletion of inhibitors in human primary hepatocyte suspension (LC-MS/MS); settings: human, cryopreserved primary human hepatocytes in suspension; for CLint scaled at 10 µM: intrinsic clearance from primary human hepatocytes scaled to whole liver/body weight
[4] = system: human primary hepatocytes; experiment: as above; settings: for Parent compound retained at the 120-min sampling point / Sampling interval at which significant depletion was first observed: primary human hepatocytes, 10 µM; for Parent compound retained at the 120-min sampling point: % of 0-min concentration, mean ± S.E.M.; for Sampling interval at which significant depletion was first observed: sampling 0-120 min
CYP2D6 [5] = target: T2, CYP2D6 (Homo sapiens, UniProt P10635); experiment: Fluorometric CYP2D6 activity assay in human hepatic microsomes; settings: human liver microsomes; for Inhibition of CYP2D6 activity: protease inhibitors at 50 µM, 15 min 37 °C
CYP3A4 [6] = target: T3, CYP3A4 (Homo sapiens, UniProt P08684); experiment: Fluorometric CYP3A4 activity assay in human hepatic microsomes; settings: for Effect on CYP3A4 enzyme activity: human liver microsomes, 10, 25 and 50 µM; for Effect on CYP3A4 enzyme activity at the lowest applied concentration: human liver microsomes, lowest applied concentration (10 µM)
CYP2C9 [7] = target: T4, CYP2C9 (Homo sapiens, UniProt P11712); experiment: Fluorometric CYP2C9 activity assay in human hepatic microsomes; settings: human liver microsomes, protease inhibitors at 50 µM, 15 min 37 °C
CYP1A2 [8] = target: T5, CYP1A2 (Homo sapiens, UniProt P05177); experiment: Fluorometric CYP1A2 activity assay in human hepatic microsomes; settings: human liver microsomes, protease inhibitors at 50 µM, 15 min 37 °C
T5 sequence (P05177 1-516): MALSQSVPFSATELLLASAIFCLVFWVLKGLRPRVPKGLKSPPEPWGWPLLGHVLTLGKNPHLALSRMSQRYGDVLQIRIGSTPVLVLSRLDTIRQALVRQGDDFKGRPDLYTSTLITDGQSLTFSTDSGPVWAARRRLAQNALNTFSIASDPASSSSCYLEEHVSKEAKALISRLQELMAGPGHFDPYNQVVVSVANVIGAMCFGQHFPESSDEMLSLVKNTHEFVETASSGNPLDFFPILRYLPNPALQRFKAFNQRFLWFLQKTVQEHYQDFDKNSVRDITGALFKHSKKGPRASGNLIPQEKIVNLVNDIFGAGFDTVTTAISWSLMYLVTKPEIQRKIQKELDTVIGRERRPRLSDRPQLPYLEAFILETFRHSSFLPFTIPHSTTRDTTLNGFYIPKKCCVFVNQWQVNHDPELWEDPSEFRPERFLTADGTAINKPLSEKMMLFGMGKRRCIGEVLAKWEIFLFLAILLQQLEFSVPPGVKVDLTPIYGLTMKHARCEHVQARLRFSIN

A/Hamburg/5/09 (H1N1pdm) = type: cell-based, influenza A virus
[9] = system: cynomolgus monkey hepatocytes; design: method as in PMID 31391268; settings: cited from earlier work
rat CYP1A2 = system: rat CYP1A2; design: method as in PMID 35448654; settings: cited from earlier work
[10] = system: H9N2 IAV strain A/quail/Shantou/782/00; type: cell-based, influenza A virus; settings: MDCK-II cells
[11] = system: primary human hepatocytes; experiment: Cytotoxicity in primary human hepatocytes; type: cell-based; settings: 50 µM, 24 h
Experimental: Supplementary Figure S1. Cytotoxicity of MI-463 and MI-1900 at 50 µM for 24 h in primary human hepatocytes. DMSO was applied as solvent control at 0.5% for 24 h.

[12] = system: H9N2 IAV strain A/quail/Shantou/782/00; type: cell-based, influenza A virus; settings: MDCK-II cells, 24 h
TMPRSS2 = target: TMPRSS2; design: method as in PMID 35635944; settings: cited from earlier work
monkey CYP1A2 = system: monkey CYP1A2; design: method as in PMID 35448654; settings: cited from earlier work
CYP1A2 [13] = target: T5, CYP1A2; design: method as in PMID 34915414; settings: earlier study; cited from earlier work
beagle dog CYP1A2 = system: beagle dog CYP1A2; design: method as in PMID 35448654; settings: cited from earlier work
CYP2C19 [14] = target: T1, CYP2C19; design: method as in PMID 34915414; settings: earlier study; cited from earlier work
CYP2D6 [15] = target: T2, CYP2D6; design: method as in PMID 34915414; settings: earlier study; cited from earlier work
CYP2C9 [16] = target: T4, CYP2C9; design: method as in PMID 34915414; settings: earlier study; cited from earlier work
matriptase = target: matriptase; design: method as in PMID 35635944; settings: cited from earlier work
Calu-3 cells = system: Calu-3 cells; design: method as in PMID 32703818; settings: 50 μM; cited from earlier work
SARS-CoV-2 = system: SARS-CoV-2; design: method as in PMID 32703818; settings: Calu-3 cells, 50 μM, 24 h p.i.; cited from earlier work
CYP3A4 [17] = target: T3, CYP3A4; design: method as in PMID 34915414; settings: fluorometric assays, earlier study; cited from earlier work

T3 sequence (P08684 whole entry): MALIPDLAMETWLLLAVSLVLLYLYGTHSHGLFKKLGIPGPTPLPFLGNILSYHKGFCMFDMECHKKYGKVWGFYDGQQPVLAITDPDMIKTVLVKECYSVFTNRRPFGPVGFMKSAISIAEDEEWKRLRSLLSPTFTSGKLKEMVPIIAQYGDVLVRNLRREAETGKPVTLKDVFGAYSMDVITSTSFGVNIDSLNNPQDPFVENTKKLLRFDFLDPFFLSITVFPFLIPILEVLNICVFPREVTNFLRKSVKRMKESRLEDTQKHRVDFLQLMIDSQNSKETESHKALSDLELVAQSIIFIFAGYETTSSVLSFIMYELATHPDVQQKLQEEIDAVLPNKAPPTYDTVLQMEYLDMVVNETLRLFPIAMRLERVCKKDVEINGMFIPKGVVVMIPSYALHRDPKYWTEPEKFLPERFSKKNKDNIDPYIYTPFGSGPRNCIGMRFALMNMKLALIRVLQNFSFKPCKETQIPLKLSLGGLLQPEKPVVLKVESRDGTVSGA
T1 sequence (P33261 whole entry): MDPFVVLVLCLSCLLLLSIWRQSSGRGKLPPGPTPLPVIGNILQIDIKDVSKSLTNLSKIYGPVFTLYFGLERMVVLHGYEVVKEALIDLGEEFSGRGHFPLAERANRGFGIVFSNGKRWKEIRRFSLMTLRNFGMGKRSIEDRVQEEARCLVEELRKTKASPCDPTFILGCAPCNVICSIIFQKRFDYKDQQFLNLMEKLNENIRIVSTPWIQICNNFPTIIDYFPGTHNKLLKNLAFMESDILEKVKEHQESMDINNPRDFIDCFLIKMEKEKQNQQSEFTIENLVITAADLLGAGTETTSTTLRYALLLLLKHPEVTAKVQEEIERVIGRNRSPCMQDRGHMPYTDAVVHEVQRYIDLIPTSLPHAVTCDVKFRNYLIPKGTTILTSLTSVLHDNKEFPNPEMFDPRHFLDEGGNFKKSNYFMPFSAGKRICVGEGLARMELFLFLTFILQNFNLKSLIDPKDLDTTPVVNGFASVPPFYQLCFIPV
T2 sequence (P10635 whole entry): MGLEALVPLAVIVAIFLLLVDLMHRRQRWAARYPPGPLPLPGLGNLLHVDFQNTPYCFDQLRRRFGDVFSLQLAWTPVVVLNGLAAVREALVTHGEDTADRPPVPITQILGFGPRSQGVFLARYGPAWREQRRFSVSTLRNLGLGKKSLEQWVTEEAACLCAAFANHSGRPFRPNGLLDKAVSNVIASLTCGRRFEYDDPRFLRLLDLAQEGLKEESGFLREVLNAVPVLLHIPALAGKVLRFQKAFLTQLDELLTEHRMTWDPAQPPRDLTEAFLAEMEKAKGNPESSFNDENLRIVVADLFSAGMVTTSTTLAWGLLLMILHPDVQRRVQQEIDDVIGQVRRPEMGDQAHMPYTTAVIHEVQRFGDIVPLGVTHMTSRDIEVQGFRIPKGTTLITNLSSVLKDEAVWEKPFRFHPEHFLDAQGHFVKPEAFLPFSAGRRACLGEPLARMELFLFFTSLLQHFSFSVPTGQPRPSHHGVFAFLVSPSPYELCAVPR
T4 sequence (P11712 whole entry): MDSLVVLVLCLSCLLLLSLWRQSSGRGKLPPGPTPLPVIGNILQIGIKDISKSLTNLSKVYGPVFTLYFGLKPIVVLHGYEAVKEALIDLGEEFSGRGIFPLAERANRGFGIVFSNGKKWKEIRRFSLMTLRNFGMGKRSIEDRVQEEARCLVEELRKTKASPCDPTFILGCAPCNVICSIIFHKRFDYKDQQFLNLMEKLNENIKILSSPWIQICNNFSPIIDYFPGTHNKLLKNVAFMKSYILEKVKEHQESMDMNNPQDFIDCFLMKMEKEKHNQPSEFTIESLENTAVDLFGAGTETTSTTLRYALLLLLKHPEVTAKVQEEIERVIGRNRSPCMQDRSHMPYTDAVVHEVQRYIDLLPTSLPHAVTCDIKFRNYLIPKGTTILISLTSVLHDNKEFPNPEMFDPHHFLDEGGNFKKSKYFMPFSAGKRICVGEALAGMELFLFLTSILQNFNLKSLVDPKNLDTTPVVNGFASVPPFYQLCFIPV

SMILES	Classification (extraction type) [1]	Extraction ratio EH [1]	Predicted Cl, CLH [1]	Effect on H9N2 virus propagation (H9N2)	Inhibition of CYP2C19 activity (CYP2C19 [2])	half-life at 10 µM [3] [h]	CLint scaled at 10 µM [3] [mL/min/kg]	Parent compound retained at the 120-min sampling point [4]	Sampling interval at which significant depletion was first observed [4] [min]	Inhibition of CYP2D6 activity (CYP2D6 [5])	Effect on CYP3A4 enzyme activity (CYP3A4 [6])	Inhibition of CYP2C9 activity (CYP2C9 [7])	Inhibition of CYP1A2 activity (CYP1A2 [8])	Treatment time after which significant conversion was seen [9] [min]	Inhibition of rat CYP1A2 (rat CYP1A2)	Cytotoxicity in primary human hepatocytes [11]	H9N2 viral spread / formation of viral foci ([12]; MOI 0.01, 50 µM)	Ki (TMPRSS2) [nM]	Inhibition of monkey CYP1A2 (monkey CYP1A2)	Inhibition of CYP1A2 activity (CYP1A2 [13])	also measured
CC(C)(C)NC(=O)NC1CCN(C(=O)[C@H](Cc2cccc(C(=N)N)c2)NS(=O)(=O)c2cccc(-c3ccc(CO)c(F)c3)c2)CC1 [MI-1904]	Intermediate	0.35	7.29	most pronounced reduction	No significant CYP inhibitory potential	3.99	19.1	70.8 ± 8.6%	120	No significant CYP inhibitory potential	significant inhibitory effect	No significant CYP inhibitory potential	No significant CYP inhibitory potential								
COc1ccc(-c2cccc(S(=O)(=O)N[C@@H](Cc3cccc(C(=N)N)c3)C(=O)N3CCC(NC(=O)NC4CCCCC4)CC3)c2)c(OC)c1 [MI-463]	Intermediate	0.37	7.60			3.57	21.3	66.7 ± 5.5% and 66.7%	30		significant inhibitory effect			60 to 120	significant inhibition	No significant differences in cell viabilities; also recorded: lack of cytotoxicity	fully prevented formation of viral foci; also recorded: fully preventing the formation of H9N2 viral foci	3	significant inhibition	No significant CYP inhibitory potential	Reduction of H1N1 viral titers (A/Hamburg/5/09 (H1N1pdm)): 0.95–1.34 logs; Reduction of H9N2 viral titers compared to untreated controls ([10]; 20 µM, 24 h): approximately 1.4 log; Reduction of H9N2 viral titers compared to untreated controls ([10]; 20 µM, 48 h): 2.1 logs; Reduction of H9N2 viral titers compared to untreated controls ([10]; 50 µM, 24 h): ~1.8 log; Reduction of H9N2 viral titers compared to untreated controls ([10]; 50 µM, 48 h): 2.6 logs; H9N2 viral spread / formation of viral foci ([12]; MOI 0.01, 20 µM): marked reduction of viral spread; Inhibition of beagle dog CYP1A2 (beagle dog CYP1A2): no significant inhibition; Inhibition of CYP2C19 activity (CYP2C19 [14]): No significant CYP inhibitory potential; Effect on CYP3A4 enzyme activity at the lowest applied concentration (CYP3A4 [6]): potent inhibitors; Inhibition of CYP2D6 activity (CYP2D6 [15]): No significant CYP inhibitory potential; Inhibition of CYP2C9 activity (CYP2C9 [16]): No significant CYP inhibitory potential; Ki (matriptase): 4 nM
CC(C)(C)NC(=O)NC1CCN(C(=O)[C@H](Cc2cccc(C(=N)N)c2)NS(=O)(=O)c2cccc(-c3ccc(CO)cc3)c2)CC1 [MI-1903]	Intermediate	0.51	10.56		No significant CYP inhibitory potential	0.753	101	38.6 ± 5.5%	30	No significant CYP inhibitory potential	significant inhibitory effect	No significant CYP inhibitory potential	No significant CYP inhibitory potential				only slightly reduced formation of viral foci				CLint ([4]; intrinsic clearance from primary human hepatocytes scaled to whole liver/body weight): 101.03 mL/min/kg
C=C[C@H]1C[N@@]2CC[C@H]1C[C@@H]2[C@@H](O)c1ccnc2ccc(OC)cc12 [quinidine, reference compound]																					Inhibition of CYP2D6 activity by reference inhibitor (CYP2D6 [5]; 3 µM, p < 0.001): significantly suppressed
COc1ccc(-c2cccc(S(=O)(=O)N[C@@H](Cc3cccc(C(=N)N)c3)C(=O)N3CCN(C(=O)NC4CCCCC4)CC3)c2)c(OC)c1 [MI-1900]	Intermediate	0.45	9.23	strongly inhibiting its replication		1.8	42.3	48.6 ± 1.5%	30					60 to 120	significant inhibition	No significant differences in cell viabilities; also recorded: lack of cytotoxicity	strong suppression of viral spread	79	significant inhibition	No significant CYP inhibitory potential	Influence on Calu-3 cell viability (Calu-3 cells): without influencing Calu-3 cell viabilitiy significantly; Reduction of H1N1 titers (A/Hamburg/5/09 (H1N1pdm)): 1.62 logs; Reduction of SARS-CoV-2 viral titers compared to control samples (SARS-CoV-2): 35 to 280 fold; Inhibition of CYP3A4 activity (CYP3A4 [17]): substantial inhibitory effects; Inhibition of beagle dog CYP1A2 (beagle dog CYP1A2): no significant inhibition; Inhibition of CYP2C19 activity (CYP2C19 [14]): No significant CYP inhibitory potential; Inhibition of CYP2D6 activity (CYP2D6 [15]): No significant CYP inhibitory potential; Inhibition of CYP2C9 activity (CYP2C9 [16]): No significant CYP inhibitory potential; Ki (matriptase): 38 nM
COc1ccc(-c2cccc(S(=O)(=O)N[C@@H](Cc3cccc(C(=N)N)c3)C(=O)N3CCC(NC(=O)NC(C)(C)C)CC3)c2)c(OC)c1 [MI-485]	Intermediate	0.39	8.17	most pronounced reduction	No significant CYP inhibitory potential	2.86	26.6	64.9 ± 5.3%	30	No significant CYP inhibitory potential	significant inhibitory effect	No significant CYP inhibitory potential	No significant CYP inhibitory potential	60 to 120							Effect on CYP3A4 enzyme activity at the lowest applied concentration (CYP3A4 [6]): potent inhibitors
